Experimental data reported in patent publication US7728001B2 (priority 2004, dated 2010).
Like-named read-outs stand apart in the source and are kept apart here.

How the values were obtained:
[1] = system: opioid receptors; assay type: biochemical
[2] = system: rhesus monkeys; settings: nonhuman primates, recent report; cited from earlier work
[3] = system: humans; settings: cited from earlier work
[4] = molecular target: serotonin 5-HT2A receptor (Homo sapiens, UniProt P28223); settings: cited from earlier work
Sequence of serotonin 5-HT2A receptor (P28223 whole entry): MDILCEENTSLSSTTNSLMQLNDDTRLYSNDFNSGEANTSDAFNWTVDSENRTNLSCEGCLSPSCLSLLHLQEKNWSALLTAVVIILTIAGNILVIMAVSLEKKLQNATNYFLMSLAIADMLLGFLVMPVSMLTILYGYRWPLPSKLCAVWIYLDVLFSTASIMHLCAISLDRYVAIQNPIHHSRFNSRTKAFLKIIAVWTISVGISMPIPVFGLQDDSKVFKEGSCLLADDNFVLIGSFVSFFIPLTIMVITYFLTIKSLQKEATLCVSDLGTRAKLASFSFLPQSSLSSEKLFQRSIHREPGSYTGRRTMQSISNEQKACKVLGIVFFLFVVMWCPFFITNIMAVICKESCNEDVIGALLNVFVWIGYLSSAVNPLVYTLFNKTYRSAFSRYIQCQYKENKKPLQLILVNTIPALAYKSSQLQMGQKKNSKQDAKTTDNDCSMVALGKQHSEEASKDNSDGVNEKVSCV

[5] = molecular target: κ receptors (Homo sapiens, UniProt P41145); test: biochemical; assay type: binding
Sequence of κ receptors (P41145 whole entry): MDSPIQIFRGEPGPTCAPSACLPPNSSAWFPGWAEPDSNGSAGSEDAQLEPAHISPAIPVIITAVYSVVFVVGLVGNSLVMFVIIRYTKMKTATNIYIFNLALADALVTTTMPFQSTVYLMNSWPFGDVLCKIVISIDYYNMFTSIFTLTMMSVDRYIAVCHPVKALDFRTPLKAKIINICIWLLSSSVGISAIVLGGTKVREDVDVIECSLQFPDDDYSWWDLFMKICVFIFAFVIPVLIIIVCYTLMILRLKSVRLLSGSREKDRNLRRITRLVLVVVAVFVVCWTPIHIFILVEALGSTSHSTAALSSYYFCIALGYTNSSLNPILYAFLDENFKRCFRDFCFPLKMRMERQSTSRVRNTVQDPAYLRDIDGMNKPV

[6] = system: rhesus monkeys; test: behavioral / discriminative stimulus effects, generalization to U69,593; assay type: in vivo; set-up: generalization to U69,593: dose or concentration left out as unconfirmed
Procedure: In an effort to further understand the in vivo pharmacology of these derivatives, propionate 9 was evaluated for behavioral effects in nonhuman primates in a pilot study. […] Propionate 9 generalized to U69,593 in only one of two rhesus monkeys tested, up to the highest dose that could be administered ([…], s.c.).

[7] = molecular target: μ receptors (Homo sapiens, UniProt P35372); test: opioid receptor binding affinity, [^125I]IOXY as radioligand (μ); settings: for Ki: [^125I]IOXY radioligand
Sequence of μ receptors (P35372 whole entry): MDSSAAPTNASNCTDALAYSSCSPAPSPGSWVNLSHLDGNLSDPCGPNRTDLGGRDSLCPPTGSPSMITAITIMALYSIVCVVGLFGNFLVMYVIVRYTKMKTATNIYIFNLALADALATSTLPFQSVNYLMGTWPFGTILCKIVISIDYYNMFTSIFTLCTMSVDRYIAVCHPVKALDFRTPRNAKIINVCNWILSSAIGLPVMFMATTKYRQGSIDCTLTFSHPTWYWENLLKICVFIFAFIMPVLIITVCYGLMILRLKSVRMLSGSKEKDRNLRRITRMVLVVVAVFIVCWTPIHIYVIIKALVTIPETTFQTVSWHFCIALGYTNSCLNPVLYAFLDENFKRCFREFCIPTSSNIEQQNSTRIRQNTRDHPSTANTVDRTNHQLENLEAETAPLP

[8] = molecular target: δ receptors (Homo sapiens, UniProt P41143); test: biochemical; assay type: binding
Sequence of δ receptors (P41143 whole entry): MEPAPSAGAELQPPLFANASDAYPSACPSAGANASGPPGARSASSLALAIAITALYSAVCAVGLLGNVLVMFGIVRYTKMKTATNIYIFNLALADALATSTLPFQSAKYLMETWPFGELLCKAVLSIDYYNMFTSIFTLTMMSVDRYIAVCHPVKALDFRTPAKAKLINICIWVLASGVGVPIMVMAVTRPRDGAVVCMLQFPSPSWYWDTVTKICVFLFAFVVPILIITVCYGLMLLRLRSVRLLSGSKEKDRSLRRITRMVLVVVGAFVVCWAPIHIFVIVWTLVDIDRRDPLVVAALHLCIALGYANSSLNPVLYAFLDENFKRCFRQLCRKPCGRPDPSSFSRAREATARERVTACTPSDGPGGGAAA

## COC(=O)[C@@H]1C[C@H](OC(C)=O)C(=O)[C@H]2[C@@]1(C)CC[C@H]1C(=O)O[C@H]([C@]3(O)[C@H](OC)O[C@H](OC)[C@H]3O)C[C@]21C
other
  melting point: 272 to 274 °C

## COC(=O)[C@@H]1C[C@H](OC(C)=O)C(=O)[C@H]2[C@@]1(C)CC[C@H]1C(=O)O[C@H]([C@]3(O)[C@@H](OC)O[C@@H](OC)[C@H]3O)C[C@]21C
other
  melting point: 151 to 153 °C

## COC(=O)[C@@H]1C[C@H](OC(C)=O)C(=O)[C@H]2[C@@]1(C)CC[C@H]1C(=O)O[C@H](c3ccoc3)C[C@]21C [Compound 1, Salvinorin A]
[1]; [^35S]GTPγS assay
  functional activity: agonists
[2]
  discriminative stimulus effect: discriminative stimulus effect similar to the high efficacy κ agonist U69,593
[3]
  smoked dose producing profound hallucinations: 200 to 500 µg
[4]
  activity at the serotonin 5-HT2A receptor: no activity

## CCC(=O)O[C@H]1C[C@@H](C(=O)OC)[C@]2(C)CC[C@H]3C(=O)O[C@H](c4ccoc4)C[C@]3(C)[C@H]2C1=O [Compound 9, (2S,4aR,6aR,7R,9S,10aS,10bR)-9-(propionyloxy)-2-(3-furanyl)dodecahydro-6a,10b-dimethyl-4,10-dioxo-2H-naphtho[2,1-c]pyran-7-carboxylic acid methyl ester]
[5]; read-out: Ki at κ receptors
  Ki: 0.0018 µM
[1]
  functional activity: agonists
[6]; nonhuman primates, pilot study, preliminary results
  behavioral effect: partial κ agonist
[6]; rhesus monkeys, up to highest dose, s.c.
  generalization to U69,593: one of two

## COC(=O)[C@@H]1C[C@H](OC(=O)C(C)C)C(=O)[C@H]2[C@@]1(C)CC[C@H]1C(=O)O[C@H](c3ccoc3)C[C@]21C [Compound 10, (2S,4aR,6aR,7R,9S,10aS,10bR)-9-(isobutyryloxy)-2-(3-furanyl)-dodecahydro-6a,10b-dimethyl-4,10-dioxo-2H-naphtho[2,1-c]pyran-7-carboxylic acid methyl ester]
[5]
  Ki: 2.98 µM
  fold reduction of affinity at κ receptors compared to 9: approximately 10 fold
[5]; read-out: Ki at κ receptors
  Ki: 0.019 µM

## C=C(C)C(=O)O[C@H]1C[C@@H](C(=O)OC)[C@]2(C)CC[C@H]3C(=O)O[C@H](c4ccoc4)C[C@]3(C)[C@H]2C1=O [Compound 11, (2S,4aR,6aR,7R,9S,10aS,10bR)-9-(2-methylacryloyloxy)-2-(3-furanyl)-dodecahydro-6a,10b-dimethyl-4,10-dioxo-2H-naphtho[2,1-c]pyran-7-carboxylic acid methyl ester]
[5]
  Ki: 0.26 µM
  fold increase in affinity, printed 'at κ receptors', compared to 10: ~11 fold
[5]; read-out: Ki at κ receptors
  Ki: 0.042 µM

## COC(=O)C(=O)O[C@H]1C[C@@H](C(=O)OC)[C@]2(C)CC[C@H]3C(=O)O[C@H](c4ccoc4)C[C@]3(C)[C@H]2C1=O [Compound 12, Oxalic acid methyl ester (2S,4aR,6aR,7R,9S,10aS,10bR)-7-carbomethoxy-2-(3-furanyl)dodecahydro-6a,10b-dimethyl-4,10-dioxo-2H-naphtho[2,1-c]pyran-9-yl ester]
[5]
  fold loss of affinity at κ receptors compared to 11: 10 fold
[5]; read-out: Ki at κ receptors
  Ki: 0.43 µM

## COC(=O)[C@@H]1C[C@H](OC(=O)c2ccccc2)C(=O)[C@H]2[C@@]1(C)CC[C@H]1C(=O)O[C@H](c3ccoc3)C[C@]21C [Compound 13, (2S,4aR,6aR,7R,9S,10aS,10bR)-9-(benzoyloxy)-2-(3-furanyl)-dodecahydro-6a,10b-dimethyl-4,10-dioxo-2H-naphtho[2,1-c]pyran-7-carboxylic acid methyl ester]
[5]
  fold loss/decrease in affinity at κ receptors compared to 1: 47 fold
[5]; read-out: Ki at κ receptors
  Ki: 0.09 µM
[7]
  selectivity for μ opioid receptor: binds selectively to the μ opioid receptor
  Ki: 0.012 µM
[1]
  functional activity: agonists

## COC(=O)[C@@H]1C[C@H](OC(=O)c2cccnc2)C(=O)[C@H]2[C@@]1(C)CC[C@H]1C(=O)O[C@H](c3ccoc3)C[C@]21C [Compound 14, Nicotinic acid (2S,4aR,6aR,7R,9S,10aS,10bR)-7-carbomethoxy-2-(3-furanyl)dodecahydro-6a,10b-dimethyl-4,10-dioxo-2H-naphtho[2,1-c]pyran-9-yl ester]
[5]; read-out: Ki at κ receptors
  Ki: 1.93 µM
[7]
  Ki: 0.073 µM
[7]; ratio of Ki vs. 13
  fold decrease in affinity at μ receptors compared to 13: 21 fold

## COC(=O)[C@@H]1C[C@H](OS(C)(=O)=O)C(=O)[C@H]2[C@@]1(C)CC[C@H]1C(=O)O[C@H](c3ccoc3)C[C@]21C [Compound 15, (2S,4aR,6aR,7R,9S,10aS,10bR)-9-(methanesulfonyloxy)-2-(3-furanyl)-dodecahydro-6a,10b-dimethyl-4,10-dioxo-2H-naphtho[2,1-c]pyran-7-carboxylic acid methyl ester]
[5]; read-out: Ki at κ receptors
  Ki: 0.0023 µM
[1]
  functional activity: agonists

## COC(=O)[C@@H]1C[C@H](O[Si](C)(C)C)C(=O)[C@H]2[C@@]1(C)CC[C@H]1C(=O)O[C@H](c3ccoc3)C[C@]21C [Compound 16, (2S,4aR,6aR,7R,9S,10aS,10bR)-9-(trimethylsilanyloxy)-2-(3-furanyl)-dodecahydro-6a,10b-dimethyl-4,10-dioxo-2H-naphtho[2,1-c]pyran-7-carboxylic acid methyl ester]
[5]
  fold loss/decrease in affinity at κ receptors compared to 1: 847 fold
[5]; read-out: Ki at κ receptors
  Ki: 1.61 µM

## COC(=O)[C@@H]1C[C@H](O)[C@H](O)[C@H]2[C@@]1(C)CC[C@H]1C(=O)O[C@H](c3ccoc3)C[C@]21C [Compound 18, (2S,4aR,6aR,7R,9S,10R,10aS,10bR)-9,10-(dihydroxy)-2-(3-furanyl)dodecahydro-6a,10b-dimethyl-4-oxo-2H-naphtho[2,1-c]pyran-7-carboxylic acid methyl ester]
[7]
  affinity at μ receptors: low affinity
[8]
  affinity at δ receptors: low affinity

## COC(=O)[C@@H]1C[C@H](O)[C@H](O)[C@@H]2[C@@]3(C)C[C@@H](c4ccoc4)OC(=O)[C@H]3CC[C@]21C [Compound 19, (2S,4aS,6aR,7R,9S,10R,10aS,10bR)-9,10-(dihydroxy)-2-(3-furanyl)dodecahydro-6a,10b-dimethyl-4-oxo-2H-naphtho[2,1-c]pyran-7-carboxylic acid methyl ester]
[5]
  Ki: ~10 µM
[7]
  Ki: ~10 µM
[8]
  Ki: ~10 µM

## COC(=O)[C@@H]1C[C@H](OC(C)=O)[C@H](OC(C)=O)[C@H]2[C@@]1(C)CC[C@H]1C(=O)O[C@H](c3ccoc3)C[C@]21C [Compound 20, (2S,4aR,6aR,7R,9S,10R,10aS,10bR)-9,10-(diacetoxy)-2-(3-furanyl)dodecahydro-6a,10b-dimethyl-4-oxo-2H-naphtho[2,1-c]pyran-7-carboxylic acid methyl ester]
[5]
  fold loss/decrease in affinity at κ receptors compared to 1: 340 fold
[5]; read-out: Ki at κ receptors
  Ki: 0.65 µM

## COC(=O)[C@@H]1C[C@H](OC(=N)C(Cl)(Cl)Cl)C(=O)[C@H]2[C@@]1(C)CC[C@H]1C(=O)O[C@H](c3ccoc3)C[C@]21C [Compound 21, (2S,4aR,6aR,7R,9S,10aS,10bR)-9-(2,2,2-trichloroacetimidoyloxy)-2-(3-furanyl)-dodecahydro-6a,10b-dimethyl-4,10-dioxo-2H-naphtho[2,1-c]pyran-7-carboxylic acid methyl ester]
[5]
  fold loss/decrease in affinity at κ receptors compared to 1: 34 fold
[5]; read-out: Ki at κ receptors
  Ki: 0.064 µM
[8]; read-out: Ki at δ receptors
  Ki: 6.47 µM

## COC(=O)[C@@H]1C[C@H](OC(=O)Nc2ccccc2)C(=O)[C@H]2[C@@]1(C)CC[C@H]1C(=O)O[C@H](c3ccoc3)C[C@]21C [Compound 22, (2S,4aR,6aR,7R,9S,10aS,10bR)-9-(phenylcarbamoyloxy)-2-(3-furanyl)-dodecahydro-6a,10b-dimethyl-4,10-dioxo-2H-naphtho[2,1-c]pyran-7-carboxylic acid methyl ester]
[5]
  fold loss/decrease in affinity at κ receptors compared to 1: 49 fold
[5]; read-out: Ki at κ receptors
  Ki: 0.093 µM
[7]
  Ki: 0.016 µM
[8]; read-out: Ki at δ receptors
  Ki: 0.23 µM

## C=CCNC(=O)O[C@H]1C[C@@H](C(=O)OC)[C@]2(C)CC[C@H]3C(=O)O[C@H](c4ccoc4)C[C@]3(C)[C@H]2C1=O [Compound 23, (2S,4aR,6aR,7R,9S,10aS,10bR)-9-(allylcarbamoyloxy)-2-(3-furanyl)-dodecahydro-6a,10b-dimethyl-4,10-dioxo-2H-naphtho[2,1-c]pyran-7-carboxylic acid methyl ester]
[5]
  fold loss/decrease in affinity at κ receptors compared to 1: ~300 fold
[5]; read-out: Ki at κ receptors
  Ki: 0.12 µM
